In the NIST ThermoML archive (doi:10.1016/j.jct.2012.06.009):
± gives the expanded uncertainty stated by the source.

Assay: activity coefficient (dimensionless); of the first substance listed, at infinite dilution; xn = mol fraction of the nth substance listed
Conditions: 101 kPa, Liquid, Chromatography, x1 = 0

Compound	activity coefficient (314.1 K)	activity coefficient (314.24 K)	activity coefficient (333.26 K)	activity coefficient (333.38 K)	activity coefficient (353.3 K)	activity coefficient (353.25 K)	other results
ClCCCl [1,2-dichloroethane] + CCCCCCCCCC(=O)O	1.45 ± 0.12	1.5 ± 0.13	1.35 ± 0.11	1.4 ± 0.12	1.27 ± 0.11	–	–
CC(C)=O [acetone] + CCCCCCCCCC(=O)O	1.56 ± 0.13	–	1.46 ± 0.12	1.47 ± 0.12	–	1.34 ± 0.11	–
COc1ccccc1 [anisole] + CCCCCCCCCC(=O)O	–	–	–	–	1.45 ± 0.12	1.43 ± 0.12	–
Clc1ccccc1 [chlorobenzene] + CCCCCCCCCC(=O)O	–	–	1.16 ± 0.096	1.18 ± 0.098	1.15 ± 0.096	1.17 ± 0.097	–
CCc1ccccc1 [ethylbenzene] + CCCCCCCCCCCCCCCC(=O)O	–	–	–	–	–	–	activity coefficient (340.19 K): 1.04 ± 0.085; activity coefficient (348.01 K): 1.05 ± 0.086; activity coefficient (358.22 K): 1.06 ± 0.087
CCCCCC [hexane] + CCCCCCCCCCCCCCCC(=O)O	–	–	–	–	–	–	activity coefficient (340.19 K): 1.29 ± 0.11; activity coefficient (348.01 K): 1.3 ± 0.11; activity coefficient (358.22 K): 1.3 ± 0.11
C=CCCCC [hex-1-ene] + CCCCCCCCCCCCCC(=O)O	–	1.24 ± 0.1	1.22 ± 0.1	1.21 ± 0.1	1.18 ± 0.098	–	–
CC(C)O [propan-2-ol] + CCCCCCCCCC(=O)O	1.56 ± 0.13	1.58 ± 0.13	1.35 ± 0.11	1.36 ± 0.11	1.15 ± 0.097	1.2 ± 0.1	–
CCO [ethanol] + CCCCCCCCCCCCCCCC(=O)O	–	–	–	–	–	–	activity coefficient (340.19 K): 1.93 ± 0.17; activity coefficient (348.01 K): 1.8 ± 0.15; activity coefficient (358.23 K): 1.62 ± 0.14
CCCCO [butan-1-ol] + CCCCCCCCCCCCCCCC(=O)O	–	–	–	–	–	–	activity coefficient (340.19 K): 1.65 ± 0.14; activity coefficient (348.01 K): 1.55 ± 0.13; activity coefficient (358.32 K): 1.43 ± 0.12
CCc1ccccc1 [ethylbenzene] + CCCCCCCCCC(=O)O	–	–	1.28 ± 0.11	–	1.22 ± 0.1	–	activity coefficient (333.35 K): 1.3 ± 0.11
CCCCCCC [heptane] + CCCCCCCCCCCCCC(=O)O	1.45 ± 0.12	1.47 ± 0.12	–	1.43 ± 0.12	1.4 ± 0.12	1.4 ± 0.12	–
CCC(C)O (stereo not drawn) [butan-2-ol] + CCCCCCCCCCCCCCCC(=O)O	–	–	–	–	–	–	activity coefficient (340.19 K): 1.26 ± 0.1; activity coefficient (348.01 K): 1.2 ± 0.1; activity coefficient (358.32 K): 1.12 ± 0.092
CCCO [propan-1-ol] + CCCCCCCCCCCCCC(=O)O	1.61 ± 0.14	1.65 ± 0.14	1.52 ± 0.13	1.51 ± 0.13	1.37 ± 0.12	1.37 ± 0.12	–
CO [methanol] + CCCCCCCCCC(=O)O	–	2.14 ± 0.18	–	1.84 ± 0.16	1.57 ± 0.13	–	activity coefficient (353.08 K): 1.46 ± 0.12
CO [methanol] + CCCCCCCCCCCCCCCC(=O)O	–	–	–	–	–	–	activity coefficient (340.17 K): 2.09 ± 0.18; activity coefficient (347.93 K): 1.94 ± 0.17; activity coefficient (358.23 K): 1.8 ± 0.15
CC(C)O [propan-2-ol] + CCCCCCCCCCCCCC(=O)O	1.39 ± 0.12	1.42 ± 0.12	1.3 ± 0.11	1.3 ± 0.11	1.19 ± 0.099	1.19 ± 0.099	–
ClCCCl [1,2-dichloroethane] + CCCCCCCCCCCCCCCC(=O)O	–	–	–	–	–	–	activity coefficient (340.19 K): 1.22 ± 0.1; activity coefficient (348.01 K): 1.19 ± 0.099; activity coefficient (358.22 K): 1.14 ± 0.095
C1CCCCC1 [cyclohexane] + CCCCCCCCCCCC(=O)O	1.29 ± 0.11	1.28 ± 0.11	–	1.25 ± 0.1	1.2 ± 0.1	1.2 ± 0.1	–
CCCCCCC [heptane] + CCCCCCCCCCCC(=O)O	1.65 ± 0.14	1.67 ± 0.14	1.67 ± 0.14	1.66 ± 0.14	1.62 ± 0.14	1.59 ± 0.14	–
CCC(C)O (stereo not drawn) [butan-2-ol] + CCCCCCCCCCCC(=O)O	1.28 ± 0.11	1.3 ± 0.11	–	1.17 ± 0.097	1.08 ± 0.089	1.06 ± 0.088	–

Compound	activity coefficient (314.1 K)	activity coefficient (314.24 K)	activity coefficient (333.26 K)	activity coefficient (333.38 K)	activity coefficient (353.3 K)	activity coefficient (353.25 K)	other results
CCCCO [butan-1-ol] + CCCCCCCCCCCC(=O)O	–	1.7 ± 0.14	1.54 ± 0.13	1.51 ± 0.13	1.36 ± 0.11	1.34 ± 0.11	–
CCCO [propan-1-ol] + CCCCCCCCCC(=O)O	1.89 ± 0.16	1.92 ± 0.17	1.57 ± 0.13	1.6 ± 0.14	1.35 ± 0.12	1.41 ± 0.12	–
CCOC(C)=O [ethyl acetate] + CCCCCCCCCCCC(=O)O	1.37 ± 0.12	1.36 ± 0.11	–	1.28 ± 0.11	1.21 ± 0.1	1.2 ± 0.1	–
ClCc1ccccc1 [(chloromethyl)benzene] + CCCCCCCCCCCCCCCC(=O)O	–	–	–	–	–	–	activity coefficient (348.01 K): 1.62 ± 0.14; activity coefficient (358.22 K): 1.57 ± 0.13
ClCc1ccccc1 [(chloromethyl)benzene] + CCCCCCCCCCCC(=O)O	–	–	–	–	–	–	activity coefficient (358.06 K): 1.71 ± 0.15; activity coefficient (358.1 K): 1.71 ± 0.15
CCOC(C)=O [ethyl acetate] + CCCCCCCCCC(=O)O	1.33 ± 0.11	–	1.25 ± 0.1	1.3 ± 0.11	–	1.21 ± 0.1	–
CCO [ethanol] + CCCCCCCCCC(=O)O	2.12 ± 0.18	2.07 ± 0.18	1.73 ± 0.15	1.78 ± 0.15	1.48 ± 0.12	–	–
CCCCCC [hexane] + CCCCCCCCCCCC(=O)O	–	1.57 ± 0.13	1.53 ± 0.13	1.54 ± 0.13	–	1.5 ± 0.13	–
C=CCCCC [hex-1-ene] + CCCCCCCCCC(=O)O	–	1.56 ± 0.13	1.5 ± 0.13	1.49 ± 0.13	1.43 ± 0.12	–	–
ClCc1ccccc1 [(chloromethyl)benzene] + CCCCCCCCCCCCCC(=O)O	–	–	1.61 ± 0.14	1.6 ± 0.14	1.55 ± 0.13	1.57 ± 0.13	–
CC(C)CC(C)(C)C [2,2,4-trimethylpentane] + CCCCCCCCCCCCCC(=O)O	–	–	–	–	–	–	activity coefficient (338.27 K): 1.53 ± 0.13; activity coefficient (348.3 K): 1.5 ± 0.13; activity coefficient (358.33 K): 1.45 ± 0.12
Cc1ccccc1 [toluene] + CCCCCCCCCCCCCC(=O)O	–	–	–	–	–	–	activity coefficient (338.27 K): 0.926 ± 0.076; activity coefficient (338.29 K): 1.01 ± 0.083; activity coefficient (348.2 K): 0.958 ± 0.079; activity coefficient (358.33 K): 0.93 ± 0.077
ClC=C(Cl)Cl [trichloroethene] + CCCCCCCCCCCCCCCC(=O)O	–	–	–	–	–	–	activity coefficient (340.19 K): 0.831 ± 0.069; activity coefficient (348.01 K): 0.826 ± 0.069; activity coefficient (358.22 K): 0.831 ± 0.069
Clc1ccccc1 [chlorobenzene] + CCCCCCCCCCCCCC(=O)O	0.983 ± 0.081	0.998 ± 0.082	0.996 ± 0.082	0.982 ± 0.081	0.961 ± 0.079	0.979 ± 0.081	–
COc1ccccc1 [anisole] + CCCCCCCCCCCCCCCC(=O)O	–	–	–	–	–	–	activity coefficient (340.19 K): 1.3 ± 0.11; activity coefficient (348.01 K): 1.28 ± 0.11; activity coefficient (358.22 K): 1.25 ± 0.1
CO [methanol] + CCCCCCCCCCCCCC(=O)O	–	1.92 ± 0.17	1.73 ± 0.15	1.71 ± 0.15	1.56 ± 0.13	–	activity coefficient (338.29 K): 2 ± 0.17; activity coefficient (358.31 K): 1.6 ± 0.14
CC(C)=O [acetone] + CCCCCCCCCCCCCCCC(=O)O	–	–	–	–	–	–	activity coefficient (340.17 K): 1.49 ± 0.13; activity coefficient (340.19 K): 1.49 ± 0.13; activity coefficient (347.93 K): 1.41 ± 0.12; activity coefficient (348.01 K): 1.42 ± 0.12; activity coefficient (358.23 K): 1.32 ± 0.11; activity coefficient (358.32 K): 1.34 ± 0.11
ClC=C(Cl)Cl [trichloroethene] + CCCCCCCCCCCCCC(=O)O	0.847 ± 0.07	0.843 ± 0.07	0.842 ± 0.07	0.838 ± 0.07	0.824 ± 0.069	0.842 ± 0.07	–
CCCCCCC [heptane] + CCCCCCCCCCCCCCCC(=O)O	–	–	–	–	–	–	activity coefficient (340.19 K): 1.4 ± 0.12; activity coefficient (348.01 K): 1.38 ± 0.12; activity coefficient (358.22 K): 1.37 ± 0.12
ClCCCl [1,2-dichloroethane] + CCCCCCCCCCCCCC(=O)O	1.21 ± 0.1	1.24 ± 0.1	1.2 ± 0.099	1.18 ± 0.098	1.13 ± 0.093	1.13 ± 0.094	–
